Experimental data published in ChEMBL document CHEMBL4823243, “Synergistic induction of apoptosis in resistant head and neck carcinoma and leukemia by alkoxyamide-based histone deacetylase inhibitors” (Eur J Med Chem, 2021).
Activity calls are given as the source filed them. The calls are words filed in the database; no cut-off is given here.

Legend:
[1] = biological target: T1, Histone deacetylase (Homo sapiens) (UniProt Q13547+O15379+Q9UBN7+Q92769+Q9UQL6+Q8WUI4+Q9BY41+Q96DB2+P56524+Q9UKV0+Q969S8); assay: Inhibition of HDAC in human CAL-27 cells assessed as combination index at 0.2 uM measured in presence of 2 uM cDDP by MTT-based Chou-Talalay method; format: cell-based
[2] = tested on: CAL-27; assay: Induction of apoptosis in cisplatin resistant human CAL-27 cells assessed as caspase 7 activation at 2 uM in presence cisplatin of pretreated for 24 hrs followed by cisplatin treatment and further incubated for 18 hrs by Caspase3/7 detection reagent based assay; format: functional, cell-based; details: time 42.0 hrs
[3] = biological target: T1, Histone deacetylase (Homo sapiens); assay: Inhibition of HDAC in human Cal27CisR cells assessed as potentiation of cisplatin-induced cytotoxicity by measuring fold reduction in cisplatin IC50 at 2 to 3 uM pretreated for 48 hrs followed by cisplatin addition and measured after 72 hrs by MTT assay relative to cisplatin alone; format: cell-based; details: dose 2-3 µM, time 120.0 hrs
[4] = biological target: T1, Histone deacetylase (Homo sapiens); assay: Inhibition of HDAC in human CAL-27 cells assessed as combination index at 1 uM measured in presence of 10 uM cDDP by MTT-based Chou-Talalay method; format: cell-based
[5] = biological target: T1, Histone deacetylase (Homo sapiens); assay: Inhibition of HDAC in human CAL-27 cells assessed as combination index at 2 uM measured in presence of 10 uM cDDP by MTT-based Chou-Talalay method; format: cell-based
[6] = biological target: T1, Histone deacetylase (Homo sapiens); assay: Inhibition of HDAC in human Cal27CisR cells assessed as combination index at 2 uM measured in presence of 10 uM cDDP by MTT-based Chou-Talalay method; format: cell-based
[7] = biological target: T1, Histone deacetylase (Homo sapiens); assay: Inhibition of HDAC in human Cal27CisR cells assessed as combination index at 1 uM measured in presence of 20 uM cDDP by MTT-based Chou-Talalay method; format: cell-based
[8] = biological target: T1, Histone deacetylase (Homo sapiens); assay: Inhibition of HDAC in human Cal27CisR cells assessed as combination index at 1.5 uM measured in presence of 20 uM cDDP by MTT-based Chou-Talalay method; format: cell-based
[9] = biological target: T1, Histone deacetylase (Homo sapiens); assay: Inhibition of HDAC in human Cal27CisR cells assessed as combination index at 2 uM measured in presence of 20 uM cDDP by MTT-based Chou-Talalay method; format: cell-based
[10] = biological target: T1, Histone deacetylase (Homo sapiens); assay: Inhibition of HDAC in human Cal27CisR cells assessed as combination index at 1 uM measured in presence of 50 uM cDDP by MTT-based Chou-Talalay method; format: cell-based
[11] = biological target: T1, Histone deacetylase (Homo sapiens); assay: Inhibition of HDAC in human Cal27CisR cells assessed as combination index at 1.5 uM measured in presence of 50 uM cDDP by MTT-based Chou-Talalay method; format: cell-based
[12] = biological target: T1, Histone deacetylase (Homo sapiens); assay: Inhibition of HDAC in human Cal27CisR cells assessed as combination index at 2 uM measured in presence of 50 uM cDDP by MTT-based Chou-Talalay method; format: cell-based
[13] = biological target: T1, Histone deacetylase (Homo sapiens); assay: Inhibition of HDAC in human Cal27CisR cells assessed as combination index at 3 uM measured in presence of 50 uM cDDP by MTT-based Chou-Talalay method; format: cell-based

## O=C(CCCCCONC(=O)c1cc2ccccc2[nH]1)NO
[1]
  CI: 0.63

## O=C(CCCCCONC(=O)c1nccc2ccccc12)NO
[2]
  Activity: Active
[3]
  Ratio IC50: 10
[4]
  CI: 0.34
[5]
  CI: 0.14
[6]
  CI: 0.58
[7]
  CI: 1.42
[8]
  CI: 0.55
[9]
  CI: 0.35
[10]
  CI: 0.47
[11]
  CI: 0.38
[12]
  CI: 0.42
[13]
  CI: 0.39
